Experimental data taken from patent publication US20250177341A1, “DIETARY TRIPROPIONIN SUPPLEMENTATION TO REDUCE ADIPOSITY AND IMPROVE GLUCOSE HOMEOSTASIS” (Wisconsin Alumni Research Foundation, priority 2023, published 2025).

Tests used:
[1] = Experiment 2: obese HFD-fed mice switched to tripropionin diet, body weight and body composition; details: mouse, in vivo
Method: (§1) We next tested the anti-adipogenic effects of tripropionin in metabolically challenged mice. To do this, we fed a HFD for 10 weeks to induce insulin resistance and obesity and then switched mice to either the tripropionin or glycerol diet for 5 weeks (FIG. 2A). […] Mice were monitored in metabolic cages to measure respiratory quotient (RQ) for the initial 48 hours after diet change.
(§2) Experiment 2: Male C57BL/6J mice were ordered from Jackson Laboratories (Bar Harbor, ME) maintained on a chow diet and housed in a chlorinated water rack system. Mice were switched to the HFD and maintained on this diet for 10 weeks at which point mice were fed either the glycerol or the tripropionin diets (n=6 mice per group). Mice were transferred to singly housed metabolic cages, as described above, to measure respiratory quotient, body weight, food intake, and energy expenditure. Five weeks after diet change mice underwent an OGTT and then an ITT one week later.

[2] = Experiment 1: high-fat diet supplemented with tripropionin, body weight, food consumption, body composition by NMR; set-up: species or system mice; details: mouse, in vivo
Excerpt: Experiment 1: Male C57BL/6J mice were ordered from Jackson Laboratories (Bar Harbor, ME) maintained on chow (Teklad 8604, Inotiv, Madison, WI) and housed in a chlorinated water rack system in cages with cornhusk bedding and ALPHA-twist™. At 11 weeks of age, the mice were switched to either a glycerol (TD220541) or tripropionin diet (TD220540) from Envigo (Madison, WI) with a sample size of 6 mice per treatment. […] Mice were maintained on their respective diets for an additional 8 weeks and then transferred to single-housed metabolic cages (Promethion Core system, Sable Systems International, North Las Vegas, NV) where body weight food intake and activity level was monitored. During this period, fat and lean mass were monitored using nuclear magnetic resonance (NMR) machine fitted for mice (LF90 Body Composition Analyzer, Bruker Corporation, Billerica, MA). […]

[3] = Experiment 3: insulin tolerance test in humanized gnotobiotic mice; details: mouse, in vivo
Excerpt: We colonized germ-free mice with a complex community of human fecal microbiota, induced metabolic dysregulation though feeding a high-fat diet for 8 weeks, and subjected the mice to a tripropionin- or glycerol-supplemented diet (FIG. 3A).
Experiment 3: Germ-free (GF) male mice (C57BL/6J) were housed in sterile isolators and maintained on autoclaved chow (LabDiet 5021; LabDiet, St. Louis, MO) and sterile water ad libitum. GF cages contained Alpha-dri® (Shepherd Specialty Papers, Kalamazoo, MI) bedding along with paper huts (Bio-Huts, Bio-Serv, Flemington, NJ) and ALPHA-twist™ (Shepherd Specialty Papers) for enrichment. Monthly tests were conducted in each isolator to confirm GF status of the mice. These included a growth test of feces in rich media for 7 days at 37° C. and checking for amplification of the 16S rRNA gene using universal primers. At 5 and 6 weeks of age mice were placed in Allentown Sentry SPP IVC rack system (Allentown Inc., Allentown, NJ) and fed a HFD (TD08811, Envigo). Mice were then colonized with fecal microbiota from a human donor fecal specimen via gavage with a fecal slurry. […]
The ITT was performed one week after the OGTT. […] Blood glucose levels were monitored as described for OGTT. Insulin tolerance curves are expressed as the relative ratio of blood glucose from the baseline.

[4] = Experiment 2: respiratory quotient in metabolic cages; set-up: species or system mice; details: mouse, in vivo
Method: as §1, §2

[5] = Experiment 1: insulin tolerance test; set-up: species or system mice; details: mouse, in vivo
Excerpt: Experiment 1: Male C57BL/6J mice were ordered from Jackson Laboratories (Bar Harbor, ME) maintained on chow (Teklad 8604, Inotiv, Madison, WI) and housed in a chlorinated water rack system in cages with cornhusk bedding and ALPHA-twist™. At 11 weeks of age, the mice were switched to either a glycerol (TD220541) or tripropionin diet (TD220540) from Envigo (Madison, WI) with a sample size of 6 mice per treatment. […] One week later, mice were subjected to an ITT. […] Mice were sacrificed at 24 weeks of age.
The ITT was performed one week after the OGTT. Mice were fasted for 4 hours in fresh cages and baseline blood glucose levels were taken from tail blood. Insulin was administered at a rate of 0.75 IU per Kg body weight via IP injection. Blood glucose levels were monitored as described for OGTT. Insulin tolerance curves are expressed as the relative ratio of blood glucose from the baseline.

[6] = Experiment 1: oral glucose tolerance test; format: in vivo; details: four weeks after diet change, vs glycerol-fed mice
Method: To assess the effect of tripropionin on adiposity and glucose homeostasis, we fed 11-week-old male C57BL/6J mice a high-fat diet (45% kcal from fat) (HFD) supplemented with either 5.3% tripropionin (w/w) or 5.3% glycerol as a control. Mice were maintained on these diets for 13 weeks, during which food consumption and body weight were measured and an oral glucose tolerance test (OGTT) and insulin tolerance test (ITT) were performed (FIG. 1A). Additionally, body composition was monitored via NMR during the last 2 weeks before sacrifice.
Experiment 1: Male C57BL/6J mice were ordered from Jackson Laboratories (Bar Harbor, ME) maintained on chow (Teklad 8604, Inotiv, Madison, WI) and housed in a chlorinated water rack system in cages with cornhusk bedding and ALPHA-twist™. […] Mice were maintained on their respective diets for an additional 8 weeks and then transferred to single-housed metabolic cages (Promethion Core system, Sable Systems International, North Las Vegas, NV) where body weight food intake and activity level was monitored. During this period, fat and lean mass were monitored using nuclear magnetic resonance (NMR) machine fitted for mice (LF90 Body Composition Analyzer, Bruker Corporation, Billerica, MA). […]
Prior to OGTT, mice were placed in fresh cages fasted for 4 hours. […] Blood glucose levels were measured at regular intervals between 15 and 120 minutes.

[7] = Experiment 3: gnotobiotic mice colonized with human fecal microbiota, body weight; details: mouse, in vivo
Excerpt: To check whether the effects of tripropionin supplementation are consistent in the context of a human microbiome, we used a gnotobiotic mouse model colonized with human fecal microbiota. We colonized germ-free mice with a complex community of human fecal microbiota, induced metabolic dysregulation though feeding a high-fat diet for 8 weeks, and subjected the mice to a tripropionin- or glycerol-supplemented diet (FIG. 3A).
At 5 and 6 weeks of age mice were placed in Allentown Sentry SPP IVC rack system (Allentown Inc., Allentown, NJ) and fed a HFD (TD08811, Envigo). Mice were then colonized with fecal microbiota from a human donor fecal specimen via gavage with a fecal slurry. The fecal slurry was prepared by collecting 200-500 mg of frozen feces and adding it to anaerobic CMM broth in an anaerobic chamber. The mixture was vortexed for 1 minute and then placed on ice until gavaging (less than 1 hour after preparation). Mice were maintained on the HFD for an additional 6 weeks before being switched to either the glycerol or tripropionin diets (n=4-5 per group). Four weeks after diet change mice were subjected to an OGTT followed by an ITT a week later. Mice were euthanized one week after ITT.

For `CCC(=O)OCC(COC(=O)CC)OC(=O)CC` [tripropionin, 2,3-di(propanoyloxy) propyl propanoate], the body weight [1] was “reduced body weight”, the “fat mass (NMR)” value [1] was “reduction in fat mass” and the “onset of body weight reduction” value [1] was “significant differences observed just three days after the diet change”. For the same compound, the body weight [2] was “significantly reduced body weight”, the “fat mass (NMR)” value [2] was “primarily due to differences in fat mass” and the “insulin sensitivity (ITT)” value [3] was “improved insulin sensitivity”. The “respiratory quotient (RQ)” value [4] was “reduced”, the “insulin sensitivity (ITT)” value [5] was “improved insulin sensitivity” and the “glucose tolerance (OGTT)” value [6] was “improved glucose tolerance”. The body weight [7] was “reduced body weight”.
